Patent US8436006B2, “2-amino-quinazoline derivatives useful as inhibitors of β-secretase (BACE)” (Jansssen Pharmaceutica N.V., priority 2004, dated 2013)

Target: T1, β-secretase (BACE) (Homo sapiens, UniProt P56817)
T1 construct: purchased Panvera
Assay: BACE FS1% Inhibition Assay (Example 160)
Assay type: biochemical
Method: The following reagents were used in this assay: sodium acetate, PEB8000 (Sigma), DMSO, HEPES, FS1 substrate [[…]], β-secretase (BACE) (Panvera), and 96-well plate (HE microplate, Molecular Devices). […] The FS1-substrate stock solution was prepared in DMSO as a 10 mg/mL solution. The FS1-substrate working solution was prepared by diluting the 10 mg/mL stock solution with substrate assay buffer to a final concentration of 300 μg/mL. The β-secretase (BACE) working solution was prepared by diluting a 0.83 mg/mL BACE stock solution with enzyme assay buffer to a final concentration of 4 μg/mL. Test compounds were dissolved in DMSO to 10 mM. […] The screening procedure for this assay was as follows: 15 μL of BACE working solution was pipetted into each well of a 96-well plate. To each well was the pipetted 2 μL of test compound at the selected concentration. Test compound and BACE were then mixed with a pipettor and incubated for 20 min at room temperature. To each well was then added 10 μL of the FS1 substrate working solution. The plates were then incubated for 1 hour at room temperature. […] The procedure for the blank was as follows. 15 μL of assay buffer was pipetted into each well to be used as a blank control. To each well was then added 2 μL of vehicle and 10 μL of FS1-substrate working solution. The plates were then incubated for 1 hour at room temperature. […] The procedure for the positive control was as follows: 15 μL of BACE working solution was pipetted into each well to be used as a positive control. To each well was then pipetted 2 μL of vehicle. Vehicle and BACE were then mixed with a pipettor and incubated for 20 min at room temperature. To each well was then added 10 μL of the FS1 substrate working solution. The plates were then incubated for 1 hour at room temperature. […] For test compounds, % inhibition was determined at each concentration as follows: [formula]

T1 sequence (P56817 46-501): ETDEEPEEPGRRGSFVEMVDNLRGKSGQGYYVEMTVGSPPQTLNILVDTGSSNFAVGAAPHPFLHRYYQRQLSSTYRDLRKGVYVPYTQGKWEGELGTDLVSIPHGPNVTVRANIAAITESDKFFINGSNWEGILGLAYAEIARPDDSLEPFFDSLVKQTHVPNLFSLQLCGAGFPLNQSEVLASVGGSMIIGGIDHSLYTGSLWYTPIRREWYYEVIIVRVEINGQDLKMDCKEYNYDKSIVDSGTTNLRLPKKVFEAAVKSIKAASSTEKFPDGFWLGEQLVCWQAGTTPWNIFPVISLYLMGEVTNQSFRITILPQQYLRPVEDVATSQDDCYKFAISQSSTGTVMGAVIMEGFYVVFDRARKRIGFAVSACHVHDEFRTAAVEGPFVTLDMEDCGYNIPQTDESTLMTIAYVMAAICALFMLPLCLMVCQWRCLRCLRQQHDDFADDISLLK

Compound	% Inhibition (FS) (0.3 μM test compound) [%]	% Inhibition (FS) (1 μM test compound) [%]	% Inhibition (FS) (3 μM test compound) [%]	% Inhibition (FS) (0.3 μM test compound, 0.3 µM) [%]	% Inhibition (FS) (1 μM test compound, 1 µM) [%]	% Inhibition (FS) (3 μM test compound, 3 µM) [%]
CCCCC(CC)C(=O)NCCN1Cc2cc(-c3cnc4ccccc4c3)ccc2N=C1N (stereo not drawn) [Compound 676]	33	<30	44			
CN(Cc1cccc(CC(=O)O)c1)C(=O)CCC(C1CCCCC1)N1Cc2cc(Oc3ccccc3)ccc2N=C1N (stereo not drawn) [Compound 778]	<30	77				
CN(C(=O)CCC(C1CCCCC1)N1Cc2cc(Oc3ccccc3)ccc2N=C1N)C1CCC(C(=O)OCc2ccccc2)CC1 (stereo not drawn) [Compound 760]	<30	44	89			
COc1ccccc1-c1ccc2c(c1)CN([C@@H](CCC(=O)N(C)Cc1cc(C)no1)C1CCCCC1)C(N)=N2 [Compound 718]	<30	30				
CC(C)CCC(=O)NCCN1Cc2cc(-c3ccc4ccccc4c3)ccc2N=C1N [Compound 668]	<30	<30	<30			
NC1=Nc2ccc(-c3cnc4ccccc4c3)cc2CN1CCNC(=O)C1CCCC1 [Compound 671]	<30	30	<30			
CN(C(=O)CCC(C1CCCCC1)N1Cc2cc(Oc3ccccc3)ccc2N=C1N)C1(C(=O)O)CCCCC1 (stereo not drawn) [Compound 741]	−48	−38	−25			
NC1=Nc2ccc(-c3ccccc3F)cc2CN1CCNC(=O)C1CCC(C(F)(F)F)CC1 (stereo not drawn) [Compound 688]	<30	36	81			
CN(Cc1csc(-c2ccccc2)n1)C(=O)CC[C@@H](C1CCCCC1)N1Cc2cc(-c3ccccc3F)ccc2N=C1N [Compound 722]	35	35	78			
CC(CC(=O)NCCN1Cc2cc(-c3ccccc3Cl)ccc2N=C1N)C(F)(F)F (stereo not drawn) [Compound 683]	64	86				
CN(C(=O)CCC(C1CCCCC1)N1Cc2cc(Oc3ccccc3)ccc2N=C1N)C1CCC(O)CC1 (stereo not drawn) [Compound 639]				<30	<30	48
COc1cccc(F)c1-c1ccc2c(c1)CN(CCNC(=O)C1CCOCC1)C(N)=N2 [Compound 699]	31	64	93			
COc1ccccc1-c1ccc2c(c1)CN([C@@H](CCC(=O)N(C)Cc1cnn(-c3ccccc3)c1)C1CCCCC1)C(N)=N2 [Compound 717]	33	39	72			
COc1ccccc1-c1ccc2c(c1)CN(CCNC(=O)C1CCC(C(F)(F)F)CC1)C(N)=N2 (stereo not drawn) [Compound 698]	<30	<30	64			
NC1=Nc2ccc(-c3ccccc3Cl)cc2CN1CCNC(=O)CCC(F)(F)F [Compound 682]	39	77	97			
CN(C(=O)CC[C@@H](C1CCOCC1)N1Cc2cc(Oc3ccccc3)ccc2N=C1N)[C@H]1CC[C@H](C(=O)O)CC1 [Compound 746]	85	104	112			
